Earlier results in patent publication US10059681B2, “Disubstituted maleic anhydrides with altered kinetics of ring closure” (Arrowhead Madison Inc., priority 2011, dated 2018).

What was measured:
[1] = Eberson et al. 1971
[2] = Kirby 1980

K=k1/k−1 of equilibrium in water toward ring closure [1] | Compound | kobs of amine release [2]
5.3 | C/C(C(=O)O)=C(\C)C(=O)O [dimethyl maleic acid] | 
 | CNC(=O)C1=C(C(=O)O)CCCC1 | 3.5×10^−2
10^−2 | O=C(O)c1ccccc1C(=O)O [phthalic acid] | 
